Where a name gives a salt, the structure may show the parent alone.

This assay deals with RSV Long strain. Kind of assay: Viral cytopathic effect (CPE) assay, anti-RSV activity. Format: cell-based, Respiratory Syncytial Virus. The conditions noted are these: human respiratory syncytial virus, 144 h, RSV Long strain (ATCC); cell viability after 6 days, Cell Counting kit-8. A digest of the protocol:
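Cells (6×10^3/well, DMEM with 10% FBS) were infected next day with RSV Long strain, at a dose giving approximately 80–90% CPE, alongside serial half-log compound dilutions. Viability was read after 6 days by CCK-8 absorbance at 450 nm (reference 630 nm), and EC50 was derived from it.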
For orientation: Damage to the host cells serves as the signal in cytopathic effect assays.
With `NCC1(CNc2cc(N3CCS(=O)(=O)c4ccccc4C3)nc3ccc(F)cc23)COC1` [Example 17-8, N-{[3-(Aminomethyl)oxetan-3-yl]methyl}-2-(1,1-dioxido-2,3-dihydro-1,4-benzothiazepin-4(5H)-yl)-6-fluoroquinolin-4-amine], the midpoint of the response, the EC50, lay at 0.021 µM.

`Cc1ccc2nc(N3CCS(=O)(=O)c4ccccc4C3)cc(NC[C@H](C)N)c2c1` [Example 5-8, (2S)—N˜1˜-[2-(1,1-Dioxido-2,3-dihydro-1,4-benzothiazepin-4(5H)-yl)-6-methylquinolin-4-yl]propane-1,2-diamine]: the midpoint of the response, the EC50, lay at 0.022 µM.

Turning to `Cc1ccc2nc(N3CCS(=O)(=O)c4ccccc4C3)cc(NCCN3CCS(=O)(=O)CC3)c2c1` [Example 5-1, 2-(1,1-Dioxido-2,3-dihydro-1,4-benzothiazepin-4(5H)-yl)-N-[2-(1,1-dioxidothiomorpholin-4-yl)ethyl]-6-methylquinolin-4-amine], the EC50 (commonly the midpoint of the concentration-response curve) was 9.2 µM.

Regarding `NCCCNc1cc(N2CCS(=O)(=O)c3ccccc3C2)nc2ccc(C(F)(F)F)cc12` [Example 17-2, N-[2-(1,1-Dioxido-2,3-dihydro-1,4-benzothiazepin-4(5H)-yl)-6-(trifluoromethyl)quinolin-4-yl]propane-1,3-diamine], the EC50 is 0.616 µM.

Turning to `NCCCNc1cc(N2CCS(=O)(=O)c3ccccc3C2)nc2c(Cl)cccc12` [Example 9-12, N-[8-Chloro-2-(1,1-dioxido-2,3-dihydro-1,4-benzothiazepin-4(5H)-yl)quinolin-4-yl]propane-1,3-diamine], the EC50 is 2.66 µM.

`Cc1ccc2nc(N3CCS(=O)(=O)c4ccccc4C3)cc(N3CC(N)C3)c2c1` [Example 26-2, 1-[2-(1,1-Dioxido-2,3-dihydro-1,4-benzothiazepin-4(5H)-yl)-6-methylquinolin-4-yl]azetidin-3-amine] registered an EC50 of 0.179 µM.

For the compound `Cc1ccc2nc(N3CCS(=O)(=O)c4ccccc4C3)nc(NCC3(N)CC3)c2c1` [Example 135-1, N-[(1-Aminocyclopropyl)methyl]-2-(1,1-dioxido-2,3-dihydro-1,4-benzothiazepin-4(5H)-yl)-6-methylquinazolin-4-amine], a half-maximal response (EC50) required 0.006 µM.

Compound `N=C(N)NCCNc1cc(N2CCCc3ccccc3C2)nc2ccccc12` [Example 125, 1-(2-{[2-(1,3,4,5-Tetrahydro-2H-2-benzazepin-2-yl)quinolin-4-yl]amino}ethyl)guanidine trifluoroacetate] had an EC50 of 2.52 µM.

In turn, `NCCCNc1cc(N2CCS(=O)(=O)c3ccccc3C2)nc2ccc(OC(F)F)cc12` [Example 17-3, N-[6-(Difluoromethoxy)-2-(1,1-dioxido-2,3-dihydro-1,4-benzothiazepin-4(5H)-yl)quinolin-4-yl]propane-1,3-diamine] gave an EC50 of 2.17 µM.

Compound `Cc1ccc2nc(N3CC[S+]([O-])c4ccccc4C3)nc(NCC(F)CN)c2c1` (stereo not drawn) [Example 55-3, 2-Fluoro-N-[6-methyl-2-(1-oxido-2,3-dihydro-1,4-benzothiazepin-4(5H)-yl)quinazolin-4-yl]propane-1,3-diamine] returned an EC50 of 0.006 µM.

In turn, `Cc1ccc2nc(N3CCC(F)(F)c4ccccc4C3)cc(NCC3(CN)COC3)c2c1` [Example 110-15, N-{[3-(Aminomethyl)oxetan-3-yl]methyl}-2-(5,5-difluoro-1,3,4,5-tetrahydro-2H-2-benzazepin-2-yl)-6-methylquinolin-4-amine] came in with a half-maximal effective concentration (EC50) of 0.004 µM.

Compound `Cc1ccc2nc(N3CCS(=O)(=O)c4ccccc4C3)cc(NCCC(N)=O)c2c1` [Example 36-1, N^˜3^˜-[2-(1,1-Dioxido-2,3-dihydro-1,4-benzothiazepin-4(5H)-yl)-6-methylquinolin-4-yl]-beta-alaninamide] registered an EC50 of 0.073 µM.

The compound `NC1(CNc2cc(N3CCS(=O)(=O)c4ccccc4C3)nc3ccc(Cl)cc23)COC1` [Example 3-22, N-[(3-Aminooxetan-3-yl)methyl]-6-chloro-2-(1,1-dioxido-2,3-dihydro-1,4-benzothiazepin-4(5H)-yl)quinolin-4-amine] displayed an EC50 of 0.032 µM.

On to `Cc1ccc2nc(N3CCS(=O)(=O)c4ccccc4C3)cc(N)c2c1` [Example 39, 2-(1,1-Dioxido-2,3-dihydro-1,4-benzothiazepin-4(5H)-yl)-6-methylquinolin-4-amine], for which the response was half-maximal at 0.092 µM (EC50).

`NCC1(CNc2cc(N3CCS(=O)(=O)c4ccccc4C3)nc3ccccc23)COC1` [Example 3-52, N-{[3-(Aminomethyl)oxetan-3-yl]methyl}-2-(1,1-dioxido-2,3-dihydro-1,4-benzothiazepin-4(5H)-yl)quinolin-4-amine] gave an EC50 of 0.005 µM.

For the compound `Cc1ccc2nc(N3CCS(=O)(=O)c4ccccc4C3)cc(NCC3(N)COC3)c2c1` [Example 2-2, N-[(3-Aminooxetan-3-yl)methyl]-2-(1,1-dioxido-2,3-dihydro-1,4-benzothiazepin-4(5H)-yl)-6-methylquinolin-4-amine], the EC50 was determined as 0.002 µM.

In the case of `Cc1ccc2nc(N3CCS(=O)(=O)c4ccccc4C3)cc(NC(=O)[C@@H]3CCCN3)c2c1` [Example 27, N-[2-(1,1-Dioxido-2,3-dihydro-1,4-benzothiazepin-4(5H)-yl)-6-methylquinolin-4-yl]prolinamide], the EC50 worked out at 2.39 µM.

On to `Cc1ccc2nc(N3CCS(=O)(=O)c4ccccc4C3)cc(N[C@@H](C)C(N)=O)c2c1` [Example 36-4, N^˜2^˜-[2-(1,1-dioxido-2,3-dihydro-1,4-benzothiazepin-4(5H)-yl)-6-methylquinolin-4-yl]-L-alaninamide], for which the response was half-maximal at 0.138 µM (EC50).

Turning to `Cc1ccc2nc(N3CCS(=O)(=O)c4ccccc4C3)cc(NCC(O)CCO)c2c1` (stereo not drawn) [Example 68, 4-{[2-(1,1-Dioxido-2,3-dihydro-1,4-benzothiazepin-4(5H)-yl)-6-methylquinolin-4-yl]amino}butane-1,3-diol], the EC50 stood at 2.01 µM.

Turning to `Cc1ccc2nc(N3CC[S+]([O-])c4ccccc4C3)cc(NCCO)c2c1` (stereo not drawn) [Example 18-11, 2-{[6-Methyl-2-(1-oxido-2,3-dihydro-1,4-benzothiazepin-4(5H)-yl)quinolin-4-yl]amino}ethanol], the midpoint of the response, the EC50, lay at 0.619 µM.

On to `NC1(CNc2nc(N3CCS(=O)(=O)c4ccccc4C3)nc3ccccc23)COC1` [Example 57-3, N-[(3-Aminooxetan-3-yl)methyl]-2-(1,1-dioxido-2,3-dihydro-1,4-benzothiazepin-4(5H)-yl)quinazolin-4-amine], for which the EC50 stood at 0.023 µM.

The compound `Cc1ccc2nc(N3CCS(=O)(=O)c4ccccc4C3)cc(NCCS(=O)(=O)CCN)c2c1` [Example 75, N-{2-[(2-Aminoethyl)sulfonyl]ethyl}-2-(1,1-dioxido-2,3-dihydro-1,4-benzothiazepin-4(5H)-yl)-6-methylquinolin-4-amine] gave a 50% effective concentration (EC50) of 0.002 µM.

The compound `NC1(CNc2nc(N3CCS(=O)(=O)c4ccccc4C3)nc3ccc(Cl)cc23)COC1` [Example 57-6, N-[(3-Aminooxetan-3-yl)methyl]-6-chloro-2-(1,1-dioxido-2,3-dihydro-1,4-benzothiazepin-4(5H)-yl)quinazolin-4-amine] had an EC50 of 0.037 µM.

On to `Cc1ccc2nc(N3CCS(=O)(=O)c4ccccc4C3)cc(NC(=O)c3cccnn3)c2c1` [Example 3-58, N-[2-(1,1-Dioxido-2,3-dihydro-1,4-benzothiazepin-4(5H)-yl)-6-methylquinolin-4-yl]pyridazine-3-carboxamide], for which the response was half-maximal at 0.184 µM (EC50).

For the compound `CNCCNc1cc(N2CCC(F)(F)c3ccccc3C2)nc2ccc(C)cc12` [Example 110-3, N-[2-(5,5-Difluoro-1,3,4,5-tetrahydro-2H-2-benzazepin-2-yl)-6-methylquinolin-4-yl]-N′-methylethane-1,2-diamine], the EC50 was 0.161 µM.

`Cc1ccc2nc(N3CCS(=O)(=O)c4ccccc4C3)cc(C(=O)C3CCNCC3)c2c1` [Example 100, [2-(1,1-Dioxido-2,3-dihydro-1,4-benzothiazepin-4(5H)-yl)-6-methylquinolin-4-yl](piperidin-4-yl)methanone]: the EC50 turned out to be 9.19 µM.

`NCC1(CNc2nc(N3CCS(=O)(=O)c4ccccc4C3)nc3ccc(Cl)cc23)COC1` [Example 56-3, N-{[3-(aminomethyl)oxetan-3-yl]methyl}-6-chloro-2-(1,1-dioxido-2,3-dihydro-1,4-benzothiazepin-4(5H)-yl)quinazolin-4-amine]: the EC50 was 0.004 µM.

The compound `NCCNc1cc(N2CCCc3ccccc3C2)nc2ccc(OC(F)(F)F)cc12` [Example 118-23, N-[2-(1,3,4,5-Tetrahydro-2H-2-benzazepin-2-yl)-6-(trifluoromethoxy)quinolin-4-yl]ethane-1,2-diamine] came in with an EC50 of 2.64 µM.

As to `Cc1ccc2nc(N3CCS(=O)(=O)c4ccccc4C3)cc(N(C)CCN)c2c1` [Example 21-2, N-[2-(1,1-Dioxido-2,3-dihydro-1,4-benzothiazepin-4(5H)-yl)-6-methylquinolin-4-yl]-N-methylethane-1,2-diamine], the EC50 turned out to be 0.161 µM.

`NCCNc1cc(N2CCCc3ccccc3C2)nc2c(Cl)cccc12` [Example 118-20, N-[8-Chloro-2-(1,3,4,5-tetrahydro-2H-2-benzazepin-2-yl)quinolin-4-yl]ethane-1,2-diamine] yielded an EC50 of 1.13 µM.

Compound `Cc1ccc2nc(N3CCS(=O)(=O)c4ccccc4C3)cc(NCC(F)(F)CN)c2c1` [Example 3-19, N-[2-(1,1-Dioxido-2,3-dihydro-1,4-benzothiazepin-4(5H)-yl)-6-methylquinolin-4-yl]-2,2-difluoropropane-1,3-diamine] registered an EC50 of 0.009 µM.

Compound `N[C@@H]1CN(c2cc(N3CCS(=O)(=O)c4ccccc4C3)nc3ccncc23)C[C@H]1O` (relative stereo) [Example 24, trans-4-Amino-1-[2-(1,1-dioxido-2,3-dihydro-1,4-benzothiazepin-4(5H)-yl)-1,6-naphthyridin-4-yl]pyrrolidin-3-ol] returned an EC50 of 0.016 µM.

In turn, `Cc1ccc2nc(N3CCC(F)(F)c4ccccc4C3)nc(NCC3(N)COC3)c2c1` [Example 116-1, N-[(3-Aminooxetan-3-yl)methyl]-2-(5,5-difluoro-1,3,4,5-tetrahydro-2H-2-benzazepin-2-yl)-6-methylquinazolin-4-amine] yielded an EC50 of 0.005 µM.
